Data from patent publication US20100004202A1, “Quaternary ammonium-functionalized-POSS compounds” (NDSU Research Foundation, priority 2008, published 2010).

Tests used:
[1] = system: Escherichia coli ATCC 12435; experiment: Antimicrobial activity of Q-POSS in solution, bacterial log reduction; type: cell-based; details: equal concentration 9.63×10^−5 moles/ml; 2 hrs at room temperature
Method: Antimicrobial characterization. The antimicrobial activity of the Q-POSS in methanol was determined as follows. Stocks of Escherichia coli ATCC 12435 and Staphylococcus aureus ATCC 25923 were maintained weekly at 4° C. on LBA and TSB, respectively. Broth cultures of E. coli (LBB) and S. aureus (TSB) were prepared by inoculating one colony into 10 ml of broth and incubating at 37° C. with shaking. Overnight cultures were pelleted via centrifugation (10 min at 4500 rpm), washed twice in 0.9% NaCl, and re-suspended to a 0.5 McFarland turbidity standard (˜10^8 cells/ml). Q-POSS (2 μL) was added to the bacterial suspension (1 mL) previously dispensed into a well of a sterile 24-well polystyrene plate. The plates were then placed on an orbital shaker and allowed to incubate for 2 hrs at room temperature. Each Q-POSS/bacterial suspension (0.1 mL of each) was immediately transferred to D/E neutralization medium (0.9 ml) in a 1.5 mL microcentrifuge tube, and serially diluted (1:10) in D/E medium. […] After 24 hr of incubation, the plates were removed from the incubator and photographed with a digital camera to quantify bacterial growth in solution. […] Methanol was also evaluated for antimicrobial activity as it was used to solublize the Q-POSS for biological evaluations. […]

[2] = system: E. coli; experiment: Minimum inhibitory concentration (MIC); type: cell-based; details: overnight incubation 37° C., absorbance at 600 nm
Method: The minimum inhibitory concentration (MIC), of Q-POSS compounds and non-Q-POSS compounds were compared and the results are shown in Table 4. As used herein, MIC refers to the lowest concentration of an antimicrobial agent that will inhibit the visible growth of a microorganism after overnight incubation. The procedure was carried out by serially diluting the antimicrobial agent in growth medium and adding the appropriate microorganism. Three 200 μl aliquots of each dilution (inoculated with the appropriate microorganism) were transferred to a 96-well plate and allowed to incubate overnight at the appropriate temperature (37° C. for biomedical microorganisms such as E. coli). The plates were then measured for absorbance at 600 nm to determine microbial growth.

[3] = Solubility in methanol; type: physicochemical
Source text: The octasilane-POSS, which was insoluble in methanol, was rendered soluble in methanol after the derivatization to Q-POSS.

| Molecule | Log Reduction against E. coli [1] | MIC against E. coli [2] | solubility in methanol [3] |
| --- | --- | --- | --- |
| Benzalkonium chloride | 7.0 | 50 µg/mL | – |
| C[SiH](C)O[Si]12O[Si]3(O[SiH](C)C)O[Si]4(O[SiH](C)C)O[Si](O[SiH](C)C)(O1)O[Si]1(O[SiH](C)C)O[Si](O[SiH](C)C)(O2)O[Si](O[SiH](C)C)(O3)O[Si](O[SiH](C)C)(O4)O1 [octasilane-POSS, Octasilane-POSS] | – | – | insoluble |
